Results reported in publication PMC8596125, “Self‐Stabilized Supramolecular Assemblies Constructed from PEGylated Dendritic Peptide Conjugate for Augmenting Tumor Retention and Therapy” (Advanced Science, 2021).

Assays:
4T1 breast tumors = assay: In vivo photodynamic therapy, 4T1 breast tumor model; design: species or system mouse; details: n = 6; for TGI: BALB/c mice with 4T1 tumors
Protocol: and 14 d post-intravenous injection by a small-animal in vivo fluorescence imaging system (CRi Maestro EX, USA) with excitation at 450 nm and emission at 560 nm.
The mean fluorescence intensity (MFI) was quantitated by CRi Maestro EX 3.0.
Ex vivo fluorescent imaging
After BALB/c mice developed established tumors (100 mm3), Ppa and SSAs (5 mg Ppa kg-1) were intravenously injected into mice via their tail veins (n = 3). The mice were sacrificed at different time points (1 d, 3 d, 5 d, 7 d, 10 d and 14 d) after post-injection, and tumors were excised for ex vivo imaging and semi-quantitative distribution analysis by an in vivo imaging system (IVIS Spectrum In Vivo Imaging System, USA). These tumors were excised for preparing frozen sections. The fixed tumor samples were sectioned into 5 μm-thick slides and incubated with Alex Fluor 594 labeled anti-CD31 antibody (Abcam, UK) and DAPI (Dojindo, Japan). A confocal microscope was used to observe accumulation and retention of Ppa in the […]
1.3.15 In vivo photodynamic therapy
In the 4T1 breast tumor model, when the tumor volume reached about 50 mm3, the mice were divided into 5 groups (n = 6) and injected intravenously with saline, Ppa-1(one treatment), Ppa-2 (two treatments), SSAs-1 (one treatment) and SSAs-2 (two treatments) every four days. The dose per injection was 5 mg Ppa kg-1. After 3 d post-injection, mice were anesthetized with 2% (v/v) isofluorane and tumors were irradiated for 8 min (660 nm, 200 mW cm-2); The mice were monitored daily to identify any signs of toxicity, while the tumor volumetric size and the body weight were measured every 2 d. Tumor volumes were calculated using the following formula: tumor volume = length × width2 × 0.5. […]
For studies with an A549 human non-small cell lung tumor model, nude mice were randomly allocated into three groups (n= 5): saline (control), Ppa, and SSAs when the average tumor volume reached 50 mm3. […] The tumor growth was monitored and the tumor size was measured every 3 d. […]
Untreated cells were set as a control. […] Relative abundance of transcripts was calculated with kallisto. […]

4T1 cells = assay: In vitro cellular uptake (flow cytometry, CLSM); format: cell-based, mouse; details: 1 µg Ppa mL-1, 2, 6 and 24 h
Protocol: CCK-8 assay. 5×103 L02 normal cells per well were seeded in a 96-well plate, and then treated by Ppa and SSAs for 24 h incubation or PDP for 24 h and 48 h incubation.
Cell viability of each group was obtained through the same process.
1.3.9 In vitro cellular uptake
To determine cellular uptake and intracellular distribution of SSAs, 4T1 cells (2×104) were seeded on each glass coverslip to allow attachment, and incubated with Ppa and PDPP for 1 h, 3 h and 6 h, while Ppa was used as a control. After nuclear staining by Hoechst 33258, cells were washed by PBS and then observed under a confocal laser scanning microscopy (CLSM) (excitation and emission wavelengths:
630 nm and 678 nm), and images were captured by Leica Confocal Software.
For quantitative characterization of uptake of SSAs by cells, 4T1 cells were seeded in 6 well plates at 1×10^5 cells per well and incubated for 2 h, 6 h and 24 h. After the spent medium was replaced with fresh one, cells were treated by Ppa and SSAs at an equivalent concentration of 1 μg Ppa mL-1 for pre-specified times. Cells were then washed with PBS twice, harvested, and suspended in 100 μL of PBS for flow cytometer analyses. 20,000 events were collected and Flowjo software was used for generating each histogram.
For TEM, 4T1 cells cultured in 6 cm dishes were incubated with Ppa and SSAs. […]

A549 cells = assay: Cytotoxicity, CCK-8 assay, A549; format: cell-based, human
Protocol: The CCK-8 assay was used to examine the photodynamic therapeutic effect of SSAs on cell viability against three cell lines. 4×103 4T1 cells per well were seeded in a 96-well plate, and then incubated overnight. The cells were treated with different concentrations of Ppa and SSAs at an equivalent Ppa dose. After 24 h incubation, the medium was replaced with fresh one, and the wells were irradiated using a 660 nm laser with 1 J cm−2. After 24 h, the spent media was replaced and the cell viability was assessed using the CCK-8 reagent. The absorbance at […] of each well was recorded on a microplate reader. Untreated cells were served as a control. Results were presented as the average cell viability by following the manufacturer’s instruction. IC50 values were calculated by using nonlinear regression in software Graphpad Prism7. The cytotoxicity of SSAs and Ppa with or without laser against A549 cell line was also measured through the same procedure. […]

C=Cc1c(C)c2cc3nc(c4c5[nH]c(cc6nc(cc1[nH]2)C(C)=C6CC)c(C)c5C(=O)C4)[C@@H](CCC(=O)O)[C@@H]3C [Ppa, pyropheophorbide a]
TGI (4T1 breast tumors; one treatment (group -1), i.v. 5 mg Ppa kg-1, 660 nm 200 mW cm-2 8 min 3 d post-injection): 11.6% | TGI (4T1 breast tumors; two treatments (group -2), i.v. 5 mg Ppa kg-1 per injection, 660 nm 200 mW cm-2 8 min 3 d post-injection): 17.1% | Antitumor effect on tumor growth (4T1 breast tumors; once and twice treatments, 4T1 model): no significant antitumor inhibitory effect | Cellular uptake (4T1 cells): better uptake efficiency compared with SSAs | Cytotoxicity without laser irradiation (A549 cells): much higher cytotoxicity | Cytotoxicity under laser irradiation (A549 cells; 660 nm laser): strong cytotoxicity
